# Reference: patent US4159373A, “7-Acyl-3-(sulfonic acid and sulfamoyl substituted tetrazolyl thiomethyl) cephalosporins” (SmithKline Corporation, priority 1978, dated 1979)
# Where two headings read alike, the source gives them in different places.
# Legend:
# Kleb. pneumo. 4200 = assay: In vivo mouse protection, Kleb. pneumo. 4200; conditions: read-out: ED50 in vivo
# Strep. Faecalis HH 34358 = assay: MIC in vitro; assay type: cell-based; conditions: Table 1, Strep. Faecalis HH 34358; for MIC: Enterococcus faecalis, read-out: MIC in vitro
# Method: (§1) The compounds of Formula I have exceptional antibacterial activity against both Gram-positive and Gram-negative organisms. Minimum inhibitory concentrations (MIC's) ranged from 0.2 to <200 μg./ml. in in vitro testing.
# Proteus morgani 179 = assay: MIC in vitro; assay type: cell-based; conditions: for MIC: Table 1, read-out: MIC in vitro
# Method: as §1
# S. aureus HH 127 = assay: MIC in vitro; assay type: cell-based; conditions: Staphylococcus aureus, S. aureus HH 127
# Method: as §1
# shigella HH 117 = assay: MIC in vitro; assay type: cell-based
# Method: as §1
# E. coli SK 12140 = assay: MIC in vitro; assay type: cell-based; conditions: Escherichia coli, E. coli SK 12140
# Method: as §1
# Salmonella ATCC 12176 = assay: MIC in vitro; assay type: cell-based; conditions: for MIC: Salmonella; for MIC in vitro: Table 1
# Method: as §1
# E. coli HH 33779 = assay: MIC in vitro; assay type: cell-based; conditions: for MIC: Escherichia coli; for MIC in vitro: Table 1
# Method: as §1
# E. coli 12140 = assay: In vivo mouse protection, E. coli 12140; conditions: Table 2, E. coli 12140, read-out: ED50 in vivo
# Entero. cloacae HH 31254 = assay: MIC in vitro; assay type: cell-based; conditions: Enterobacter cloacae
# Kleb. pneumo. SK 4200 = assay: MIC in vitro; assay type: cell-based, Kleb. pneumoniae; conditions: Table 1, Kleb. pneumo. SK 4200; for MIC: Klebsiella pneumoniae, read-out: MIC in vitro
# Method: as §1
# Serra. marc ATCC 13880 = assay: MIC in vitro; assay type: cell-based, Serratia marcescens; conditions: for MIC: Serratia marcescens; for MIC in vitro: Table 1
# Method: as §1
# Psuedo. sp. HH 63 = assay: MIC in vitro; assay type: cell-based, Pseudo. aeruginosa; conditions: Pseudomonas aeruginosa; Table 1; Psuedo. sp. HH 63; read-out: MIC in vitro
# Method: as §1
# S. aureus SK 23390 = assay: MIC in vitro; assay type: cell-based; conditions: S. aureus SK 23390; for MIC: Staphylococcus aureus, SK23390, Table 1, read-out: MIC in vitro
# Method: as §1
# Kleb. pneumo. SK 1200 = assay: MIC in vitro; assay type: cell-based, Kleb. pneumoniae; conditions: Klebsiella pneumoniae, read-out: MIC in vitro
# Method: as §1
# [1] = tested on: Entero. aerog. ATCC 13048; assay: MIC in vitro; assay type: cell-based, Enterobacter aerogenes; conditions: Klebsiella aerogenes
# Method: as §1
# S. villaluz = assay: MIC in vitro; assay type: cell-based; conditions: Table 1
# Method: as §1
# [2] = sc, Table 2, Kleb. pneumo. 4200, s.c.
# [3] = HH127, Table 1, read-out: MIC in vitro
# [4] = HH117, Table 1, shigella HH 117, read-out: MIC in vitro
# [5] = SK12140, Table 1, read-out: MIC in vitro
# [6] = ATCC12176, Table 1, read-out: MIC in vitro
# [7] = HH33779, Table 1, E. coli HH 33779, read-out: MIC in vitro
# [8] = Escherichia coli, 12140, sc, s.c.
# [9] = HH31254, Table 1, read-out: MIC in vitro
# [10] = HH31254, read-out: MIC in vitro, Table 1
# [11] = ATCC13880, Table 1, Serra. marc ATCC 13880, read-out: MIC in vitro
# [12] = po, Table 2, Kleb. pneumo. 4200, p.o.
# [13] = Escherichia coli, 12140, po, p.o.
# [14] = ATCC13048, Table 1, Entero. aerog. ATCC 13048, read-out: MIC in vitro
# [15] = ATCC13880, read-out: MIC in vitro
# [16] = SK12140, read-out: MIC in vitro, Table 1
Structure (SMILES),ED50 (Kleb. pneumo. 4200; [2]),MIC (Strep. Faecalis HH 34358),MIC (Proteus morgani 179),MIC (S. aureus HH 127; [3]),MIC (shigella HH 117; [4]),MIC (E. coli SK 12140; [5]),MIC (Salmonella ATCC 12176; [6]),MIC (E. coli HH 33779; [7]),ED50 (E. coli 12140; [8]),MIC (Entero. cloacae HH 31254; [9]),MIC (Entero. cloacae HH 31254; [10]),MIC (Kleb. pneumo. SK 4200),MIC (Serra. marc ATCC 13880; [11]),MIC in vitro (Serra. marc ATCC 13880; Serra. marc ATCC 13880),MIC (Psuedo. sp. HH 63),MIC (S. aureus SK 23390),ED50 (E. coli 12140; [13]),MIC (Kleb. pneumo. SK 1200),"MIC [1, 14]","MIC (Kleb. pneumo. SK 1200; Table 1, Kleb. pneumo. SK 1200)",also measured
"O=C(O)C1=C(CSc2nnnn2CS(=O)(=O)O)CS[C@@H]2C(NC(=O)[C@H](O)c3ccccc3)C(=O)N12 (stereo partly drawn) [I, 7-D-Mandelamido-3-(1-sulfomethyltetrazol-5-ylthiomethyl)-3-cephem-4-carboxylic acid]",0.28 mg/kg,50 µg/mL,3 µg/mL,6 µg/mL,0.4 µg/mL,0.8 µg/mL,0.8 µg/mL,3.1 µg/mL,1.56 mg/kg,3 µg/mL,0.8 µg/mL,0.8 µg/mL,12.5 µg/mL,13 µg/mL,> 200 µg/mL,,,,,,"MIC in vitro (Strep. Faecalis HH 34358): 100 µg/mL; MIC in vitro (Proteus morgani 179; Table 1): 3.1 µg/mL; MIC (S. aureus HH 127; HH127, read-out: MIC in vitro, Table 1): 3.1 µg/mL; MIC in vitro (Salmonella ATCC 12176): 0.4 µg/mL; MIC in vitro (E. coli HH 33779; E. coli HH 33779): 1.6 µg/mL"
"O=C(O)C1=C(CSc2nnnn2CCS(=O)(=O)O)CS[C@@H]2C(NC(=O)[C@H](O)c3ccccc3)C(=O)N12 (stereo partly drawn) [II, 7-D-Mandelamido-3-[1-(2-sulfoethyl)tetrazol-5-ylthiomethyl]-3-cephem-4-carboxylic acid]",0.39 mg/kg,50 µg/mL,6.3 µg/mL,1.6 µg/mL,0.4 µg/mL,0.8 µg/mL,0.8 µg/mL,1.6 µg/mL,0.58 mg/kg,3.1 µg/mL,,0.8 µg/mL,25 µg/mL,,> 200 µg/mL,0.8 µg/mL,35 mg/kg,0.4 µg/mL,6.3 µg/mL,,ED50 (Kleb. pneumo. 4200; [12]): 18.6 mg/kg
"NS(=O)(=O)CCn1nnnc1SCC1=C(C(=O)O)N2C(=O)C(NC(=O)[C@H](O)c3ccccc3)[C@H]2SC1 (stereo partly drawn) [III, 7-D-mandelamido-3-[1-(2-sulfamoylethyl)tetrazol-5-ylthiomethyl]-3-cephem-4-carboxylic acid]",0.68 mg/kg,12.5 µg/mL,3.1 µg/mL,1.6 µg/mL,0.2 µg/mL,0.8 µg/mL,0.4 µg/mL,1.6 µg/mL,0.7 mg/kg,,0.8 µg/mL,1.6 µg/mL,,,> 200 µg/mL,0.2 µg/mL,25 mg/kg,,3.1 µg/mL,0.8 µg/mL,ED50 (Kleb. pneumo. 4200; [12]): 21.5 mg/kg; MIC (Serra. marc ATCC 13880; [15]): 6.3 µg/mL
"O=C(Cc1cccs1)NC1C(=O)N2C(C(=O)O)=C(CSc3nnnn3CS(=O)(=O)O)CS[C@H]12 (stereo partly shown) [V, 7-(2-thienylacetamido)-3-(1-sulfomethyltetrazol-5-ylthiomethyl)-3-cephem-4-carboxylic acid]",0.26 mg/kg,25 µg/mL,> 200 µg/mL,0.8 µg/mL,1.6 µg/mL,1.6 µg/mL,0.8 µg/mL,6.3 µg/mL,4 mg/kg,1.6 µg/mL,,1.6 µg/mL,100 µg/mL,200 µg/mL,> 200 µg/mL,0.4 µg/mL,> 50 mg/kg,0.4 µg/mL,12.5 µg/mL,,MIC in vitro (Strep. Faecalis HH 34358): 50 µg/mL; MIC in vitro (Kleb. pneumo. SK 4200): 0.8 µg/mL
"O=C(CSC(F)(F)F)NC1C(=O)N2C(C(=O)O)=C(CSc3nnnn3CS(=O)(=O)O)CSC12 (stereo not shown) [VII, 7-Trifluoromethylthioacetamido-3-(1-sulfomethyltetrazol-5-ylthiomethyl)-3-cephem-4-carboxylic acid]",0.24 mg/kg,50 µg/mL,100 µg/mL,0.8 µg/mL,,0.8 µg/mL,,3.1 µg/mL,0.86 mg/kg,3.1 µg/mL,0.8 µg/mL,0.4 µg/mL,200 µg/mL,100 µg/mL,> 200 µg/mL,0.8 µg/mL,,,,0.2 µg/mL,"MIC (shigella HH 117; Shigella, HH117, read-out: MIC in vitro): 0.8 µg/mL; MIC in vitro (S. aureus SK 23390; Table 1): 0.4 µg/mL; MIC (E. coli SK 12140; [16]): 0.4 µg/mL; MIC (Salmonella ATCC 12176; ATCC12176, read-out: MIC in vitro, Table 1): 0.4 µg/mL; MIC in vitro (Salmonella ATCC 12176): 0.2 µg/mL; MIC in vitro (E. coli HH 33779; E. coli HH 33779): 1.6 µg/mL; MIC in vitro (Kleb. pneumo. SK 4200): 0.2 µg/mL"
"NCc1ccccc1CC(=O)NC1C(=O)N2C(C(=O)O)=C(CSc3nnnn3CS(=O)(=O)O)CS[C@H]12 (stereo partly shown) [XI, 7-(o-aminomethylphenylacetamido)-3-(1-sulfomethyltetrazol-5-ylthiomethyl)-3-cephem-4-carboxylic acid]",,25 µg/mL,50 µg/mL,1.6 µg/mL,,,≤ 0.1 µg/mL,,21.5 mg/kg,,0.8 µg/mL,≤ 0.1 µg/mL,,,> 200 µg/mL,1.6 µg/mL,,,,≤ 0.1 µg/mL,"MIC (S. villaluz): 200 µg/mL; MIC (E. coli SK 12140; [16]): 0.2 µg/mL; MIC (E. coli HH 33779; HH33779, read-out: MIC in vitro): 0.4 µg/mL; MIC ([1]; ATCC13048, read-out: MIC in vitro): 0.8 µg/mL; MIC (Serra. marc ATCC 13880; [15]): 6.3 µg/mL"
"N#CCC(=O)NC1C(=O)N2C(C(=O)O)=C(CSc3nnnn3CS(=O)(=O)O)CS[C@H]12 (stereo partly shown) [XII, 7-cyanoacetamido-3-(1-sulfomethyltetrazol-5-ylthiomethyl)-3-cephem-4-carboxylic acid]",,50 µg/mL,200 µg/mL,1.6 µg/mL,,0.8 µg/mL,0.4 µg/mL,1.6 µg/mL,,1.6 µg/mL,,0.8 µg/mL,50 µg/mL,,> 200 µg/mL,1.6 µg/mL,,0.4 µg/mL,3.1 µg/mL,,MIC (S. villaluz): > 200 µg/mL
